Experimental data reported in patent publication US6660768B2, “Parasiticidal compositions and methods of use” (Schering-Plough Animal Health Corporation, priority 2001, dated 2003).

Assay: Example 3B: solubility of permethrin in PM (propylene glycol monomethyl ether), DM (diethylene glycol monomethyl ether) and PM or DPM (dipropylene glycol monomethyl ether)/d-limonene mixtures at low temperatures, seeded
Procedure: These solutions were poured into 100 mL tubes with screw top caps. These tubes were placed in the cold water bath and allowed to come to equilibrium at the temperature of the bath. […] The seeded preparations were then thoroughly shaken, replaced in the bath and allowed to remain in the bath for a 24 hour period. The preparations were then examined for crystallization, then again thoroughly agitated and replaced in the bath for an additional time period. Samples of the supernatant were removed after additional crystallization had occurred.
The solvent mixtures tested were: dipropylene glycol monomethyl ether/d-limonene and propylene glycol monomethyl ether/d-limonene.
These solvent mixtures were evaluated at ratios of 2:1, 1:1, 1:2, and then at 8:2 and 9:1 (the first number refers to one of the glycol ethers, the second number refers to d-limonene).

SMILES: CC1(C)C(C=C(Cl)Cl)C1C(=O)OCc1cccc(Oc2ccccc2)c1 (stereo not drawn) [permethrin]
- % Total Permethrin (65% permethrin in PM/d-limonene, 67% d-limonene of solvent mixture, 10° C.): 65.95%
- % Total Permethrin (65% permethrin in PM/d-limonene, 100% d-limonene of solvent mixture, 0° C.): 60.27%
- % Total Permethrin (65% permethrin in PM/d-limonene, 100% d-limonene of solvent mixture, 5° C.): 62.73%
- % Total Permethrin (65% permethrin in PM/d-limonene, 100% d-limonene of solvent mixture, 10° C.): 65.88%
- % Total Permethrin (70% permethrin in DPM/d-limonene, 0% d-limonene of solvent mixture, 0° C.): 64.24%
- % Total Permethrin (70% permethrin in DPM/d-limonene, 0% d-limonene of solvent mixture, 5° C.): 65.56%
- % Total Permethrin (70% permethrin in DPM/d-limonene, 0% d-limonene of solvent mixture, 10° C.): 66.58%
- % Total Permethrin (70% permethrin in DPM/d-limonene, 10% d-limonene of solvent mixture, 10° C.): 66.95%
- % Total Permethrin (70% permethrin in DPM/d-limonene, 20% d-limonene of solvent mixture, 10° C.): 67.71%
- % Total Permethrin (70% permethrin in DPM/d-limonene, 33% d-limonene of solvent mixture, 5° C.): 69.64%
- % Total Permethrin (70% permethrin in DPM/d-limonene, 33% d-limonene of solvent mixture, 10° C.): 67.38%
- % Total Permethrin (70% permethrin in DPM/d-limonene, 50% d-limonene of solvent mixture, 0° C.): 65.66%
- % Total Permethrin (70% permethrin in DPM/d-limonene, 50% d-limonene of solvent mixture, 5° C.): 68.48%
- % Total Permethrin (70% permethrin in DPM/d-limonene, 50% d-limonene of solvent mixture, 10° C.): 66.70%
- % Total Permethrin (70% permethrin in DPM/d-limonene, 67% d-limonene of solvent mixture, 0° C.): 66.05%
- % Total Permethrin (70% permethrin in DPM/d-limonene, 67% d-limonene of solvent mixture, 5° C.): 69.38%
- % Total Permethrin (70% permethrin in DPM/d-limonene, 67% d-limonene of solvent mixture, 10° C.): 67.98%
- % Total Permethrin (70% permethrin in DPM/d-limonene, 100% d-limonene of solvent mixture, 0° C.): 64.61%
- % Total Permethrin (70% permethrin in DPM/d-limonene, 100% d-limonene of solvent mixture, 5° C.): 66.05%
- % Total Permethrin (70% permethrin in DPM/d-limonene, 100% d-limonene of solvent mixture, 10° C.): 69.30%
- % Total Permethrin (70% permethrin in PM/d-limonene, 0% d-limonene of solvent mixture, 0° C.): 57.91%
- % Total Permethrin (70% permethrin in PM/d-limonene, 0% d-limonene of solvent mixture, 5° C.): 64.79%
- % Total Permethrin (70% permethrin in PM/d-limonene, 10% d-limonene of solvent mixture, 10° C.): 66.70%
- % Total Permethrin (70% permethrin in PM/d-limonene, 20% d-limonene of solvent mixture, 10° C.): 66.92%
- % Total Permethrin (70% permethrin in PM/d-limonene, 33% d-limonene of solvent mixture, 0° C.): 65.20%
- % Total Permethrin (70% permethrin in PM/d-limonene, 33% d-limonene of solvent mixture, 5° C.): 67.36%
- % Total Permethrin (70% permethrin in PM/d-limonene, 33% d-limonene of solvent mixture, 10° C.): 67.80%
- % Total Permethrin (70% permethrin in PM/d-limonene, 50% d-limonene of solvent mixture, 0° C.): 65.36%
- % Total Permethrin (70% permethrin in PM/d-limonene, 50% d-limonene of solvent mixture, 5° C.): 69.65%
- % Total Permethrin (70% permethrin in PM/d-limonene, 50% d-limonene of solvent mixture, 10° C.): 68.40%
- % Total Permethrin (70% permethrin in PM/d-limonene, 67% d-limonene of solvent mixture, 0° C.): 65.94%
- % Total Permethrin (70% permethrin in PM/d-limonene, 67% d-limonene of solvent mixture, 5° C.): 68.33%
- % Total Permethrin (70% permethrin in PM/d-limonene, 100% d-limonene of solvent mixture, 0° C.): 64.61%
- % Total Permethrin (70% permethrin in PM/d-limonene, 100% d-limonene of solvent mixture, 5° C.): 66.05%
- % permethrin remaining in solution (DM, 5° C., Original % permethrin 50): 46.00%
- % permethrin remaining in solution (DM, 5° C., Original % permethrin 55): 51.74%
- % permethrin remaining in solution (DM, 5° C., Original % permethrin 60): 55.09%
- % permethrin remaining in solution (DM, 5° C., Original % permethrin 65): 60.22%
- % permethrin remaining in solution (DM, 10° C., Original % permethrin 50): 46.80%
- % permethrin remaining in solution (DM, 10° C., Original % permethrin 55): 50.72%
- % permethrin remaining in solution (DM, 10° C., Original % permethrin 60): 56.17%
- % permethrin remaining in solution (DM, 20° C., Original % permethrin 50): 50.55%
- % permethrin remaining in solution (DM, 20° C., Original % permethrin 55): 55.14%
- % permethrin remaining in solution (DM, 20° C., Original % permethrin 60): 60.05%
- % permethrin remaining in solution (DM, 20° C., Original % permethrin 65): 64.85%
- % permethrin remaining in solution (DM, 20° C., Original % permethrin 75): 74.20%
- % permethrin remaining in solution (DM, 25° C., Original % permethrin 50): 49.43%
- % permethrin remaining in solution (DM, 25° C., Original % permethrin 55): 53.98%
- % permethrin remaining in solution (DM, 25° C., Original % permethrin 60): 61.10%
- % permethrin remaining in solution (DM, 25° C., Original % permethrin 65): 64.25%
- % permethrin remaining in solution (DM, 25° C., Original % permethrin 75): 74.53%
- % permethrin remaining in solution (PM, 5° C., Original % permethrin 50): 46.61%
- % permethrin remaining in solution (PM, 5° C., Original % permethrin 55): 52.71%
- % permethrin remaining in solution (PM, 5° C., Original % permethrin 60): 56.69%
- % permethrin remaining in solution (PM, 5° C., Original % permethrin 65): 61.50%
- % permethrin remaining in solution (PM, 5° C., Original % permethrin 75): 70.89%
- % permethrin remaining in solution (PM, 10° C., Original % permethrin 60): 59.08%
- % permethrin remaining in solution (PM, 10° C., Original % permethrin 65): 61.63%
- % permethrin remaining in solution (PM, 10° C., Original % permethrin 75): 72.22%
- % permethrin remaining in solution (PM, 20° C., Original % permethrin 50): 50.60%
- % permethrin remaining in solution (PM, 20° C., Original % permethrin 55): 55.54%
- % permethrin remaining in solution (PM, 20° C., Original % permethrin 60): 61.27%
- % permethrin remaining in solution (PM, 20° C., Original % permethrin 65): 66.25%
- % permethrin remaining in solution (PM, 20° C., Original % permethrin 75): 76.84%
- % permethrin remaining in solution (PM, 25° C., Original % permethrin 50): 51.28%
- % permethrin remaining in solution (PM, 25° C., Original % permethrin 55): 56.19%
- % permethrin remaining in solution (PM, 25° C., Original % permethrin 60): 60.99%
- % permethrin remaining in solution (PM, 25° C., Original % permethrin 65): 66.71%
- % permethrin remaining in solution (PM, 25° C., Original % permethrin 75): 75.82%
